Key:
Format in all cases: cell-based
HT29 cells = test: Western blot protein expression; conditions: HT29, IC50, 72 h; for β-actin/GAPDH normalized to control (1): representative blot Figure S28A; for β-tubulin/GAPDH normalized to control (1): representative blot Figure S28B; for α-tubulin/GAPDH normalized to control (1): representative blot Figure S28C; for p-AKT/AKT/GAPDH normalized to control (1): representative blot Figure S29A; for p-ERK/ERK/GAPDH normalized to control (1): representative blot Figure S29B; for p53/GAPDH normalized to control (1): representative blot Figure S29C; for p21/GAPDH normalized to control (1): representative blot Figure S29D; for Bax/GAPDH normalized to control (1): representative blot Figure S30A; for Bcl2/GAPDH normalized to control (1): representative blot Figure S30B; for Cyt C/GAPDH normalized to control (1): representative blot Figure S30C; for Procaspase 8/GAPDH normalized to control (1): representative blot Figure S30D; for Cleaved BID/GAPDH normalized to control (1): representative blot Figure S30E; for Procaspase 9/GAPDH normalized to control (1): representative blot Figure S30F; for Cleaved caspase 3/GAPDH normalized to control (1) / Procaspase 3/GAPDH normalized to control (1): representative blot Figure S30G; for Cleaved PARP-1/GAPDH normalized to control (1) / PARP-1/GAPDH normalized to control (1): representative blot Figure S30H; for Beclin1/GAPDH normalized to control (1): representative blot Figure S31A; for ATG5/GAPDH normalized to control (1): representative blot Figure S31B; for ATG16L1/GAPDH normalized to control (1): representative blot Figure S31C; for ATG9A/GAPDH normalized to control (1): representative blot Figure S31D; for ATG4B/GAPDH normalized to control (1): representative blot Figure S31E; for LC3B/GAPDH normalized to control (1): representative blot Figure S31F
Summary of the method: (§1)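 Cells were lysed in RIPA buffer with orthovanadate, and 20 µg protein was run on SDS-PAGE, transferred to PVDF and probed for proliferation, apoptosis, microtubule and autophagy markers. ECL band intensities were normalised to GAPDH and then to untreated control. Three independent experiments were run per marker.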

MDA−MB−231 cells = test: Western blot protein expression; conditions: MDA−MB−231, IC50, 72 h; for β-actin/GAPDH normalized to control (1): representative blot Figure S24A; for β-tubulin/GAPDH normalized to control (1): representative blot Figure S24B; for α-tubulin/GAPDH normalized to control (1): representative blot Figure S24C; for p-AKT/AKT/GAPDH normalized to control (1): representative blot Figure S25A; for p-ERK/ERK/GAPDH normalized to control (1): representative blot Figure S25B; for p53/GAPDH normalized to control (1): representative blot Figure S25C; for p21/GAPDH normalized to control (1): representative blot Figure S25D; for Bax/GAPDH normalized to control (1): representative blot Figure S26A; for Bcl2/GAPDH normalized to control (1): representative blot Figure S26B; for Cytochrome C/GAPDH normalized to control (1): representative blot Figure S26C; for Procaspase 8/GAPDH normalized to control (1): representative blot Figure S26D; for Cleaved BID/GAPDH normalized to control (1): representative blot Figure S26E; for Procaspase 9/GAPDH normalized to control (1): representative blot Figure S26F; for Procaspase 3/GAPDH normalized to control (1): representative blot Figure S26G; for PARP-1/GAPDH normalized to control (1): representative blot Figure S26H; for Beclin1/GAPDH normalized to control (1): representative blot Figure S27A; for ATG5/GAPDH normalized to control (1): representative blot Figure S27B; for ATG16L1/GAPDH normalized to control (1): representative blot Figure S27C; for ATG9A/GAPDH normalized to control (1): representative blot Figure S27D; for ATG4B/GAPDH normalized to control (1): representative blot Figure S27E; for LC3B/GAPDH normalized to control (1): representative blot Figure S27F
Summary of the method: as §1

A2780 = test: WST-1 cytotoxicity, 72 h; conditions: for potency relative to cisplatin / IC50: A2780, 72 h; for IC50: mean ± SEM; for Selective cytotoxicity index (SCI): IC50 MCF10A/IC50 A2780
Summary of the method: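 Cells were seeded at 1000 per well and exposed to compound for 72 h. Viability was then read with WST-1 (1 h, absorbance at 450 nm). Apparent IC50 values came from nonlinear regression of % survival across three experiments, each with n = 3.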

MDA−MB−231 spheroids = test: 3D bioprinted spheroid cytotoxicity (WST-1); conditions: 72 h, mean ± SEM
HT29 spheroids = test: 3D bioprinted spheroid cytotoxicity (WST-1); conditions: 72 h, mean ± SEM

Compound: N[C@H]1CCCC[C@@H]1N.O=[N+]([O-])[O-].O=[N+]([O-])[O-].[OH-].[OH-].[Pt+4].c1cnc2c(c1)ccc1cccnc12 [[Pt(1,10-phenanthroline)(1S,2S-diaminocyclohexane)(dihydroxy)](NO3)2]
- β-actin/GAPDH normalized to control (1) (HT29 cells): 0.8943
- β-tubulin/GAPDH normalized to control (1) (HT29 cells): 0.8137
- α-tubulin/GAPDH normalized to control (1) (HT29 cells): 0.4054
- p-AKT/AKT/GAPDH normalized to control (1) (HT29 cells): 1.011
- p-ERK/ERK/GAPDH normalized to control (1) (HT29 cells): 1.229
- p53/GAPDH normalized to control (1) (HT29 cells): 4.543
- p21/GAPDH normalized to control (1) (HT29 cells): 3.293
- Bax/GAPDH normalized to control (1) (HT29 cells): 3.388
- Bcl2/GAPDH normalized to control (1) (HT29 cells): 1.194
- Cyt C/GAPDH normalized to control (1) (HT29 cells): 7.091
- Procaspase 8/GAPDH normalized to control (1) (HT29 cells): 0.9474
- Cleaved BID/GAPDH normalized to control (1) (HT29 cells): 2.711
- Procaspase 9/GAPDH normalized to control (1) (HT29 cells): 0.5927
- Cleaved caspase 3/GAPDH normalized to control (1) (HT29 cells): 1.017
- Procaspase 3/GAPDH normalized to control (1) (HT29 cells): 1.141
- Cleaved PARP-1/GAPDH normalized to control (1) (HT29 cells): 2.239
- PARP-1/GAPDH normalized to control (1) (HT29 cells): 0.6475
- Beclin1/GAPDH normalized to control (1) (HT29 cells): 8.006
- ATG5/GAPDH normalized to control (1) (HT29 cells): 0.3102
- ATG16L1/GAPDH normalized to control (1) (HT29 cells): 4.093
- ATG9A/GAPDH normalized to control (1) (HT29 cells): 1.203
- ATG4B/GAPDH normalized to control (1) (HT29 cells): 0.9049
- LC3B/GAPDH normalized to control (1) (HT29 cells): 2.232
- β-actin/GAPDH normalized to control (1) (MDA−MB−231 cells): 0.835
- β-tubulin/GAPDH normalized to control (1) (MDA−MB−231 cells): 0.6552
- α-tubulin/GAPDH normalized to control (1) (MDA−MB−231 cells): 0.9279
- p-AKT/AKT/GAPDH normalized to control (1) (MDA−MB−231 cells): 1.063
- p-ERK/ERK/GAPDH normalized to control (1) (MDA−MB−231 cells): 0.1206
- p53/GAPDH normalized to control (1) (MDA−MB−231 cells): 1.176
- p21/GAPDH normalized to control (1) (MDA−MB−231 cells): 1.346
- Bax/GAPDH normalized to control (1) (MDA−MB−231 cells): 1.398
- Bcl2/GAPDH normalized to control (1) (MDA−MB−231 cells): 0.7843
- Cytochrome C/GAPDH normalized to control (1) (MDA−MB−231 cells): 2.378
- Procaspase 8/GAPDH normalized to control (1) (MDA−MB−231 cells): 0.2888
- Cleaved BID/GAPDH normalized to control (1) (MDA−MB−231 cells): 1.33
- Procaspase 9/GAPDH normalized to control (1) (MDA−MB−231 cells): 0.2675
- Procaspase 3/GAPDH normalized to control (1) (MDA−MB−231 cells): 0.4093
- PARP-1/GAPDH normalized to control (1) (MDA−MB−231 cells): 0.5717
- Beclin1/GAPDH normalized to control (1) (MDA−MB−231 cells): 1.408
- ATG5/GAPDH normalized to control (1) (MDA−MB−231 cells): 1.129
- ATG16L1/GAPDH normalized to control (1) (MDA−MB−231 cells): 0.9987
- ATG9A/GAPDH normalized to control (1) (MDA−MB−231 cells): 0.774
- ATG4B/GAPDH normalized to control (1) (MDA−MB−231 cells): 1.581
- LC3B/GAPDH normalized to control (1) (MDA−MB−231 cells): 0.6076
- potency relative to cisplatin (A2780): 3 fold
- IC50 (A2780): 6.49 ± 1.23 µM
- Selective cytotoxicity index (SCI) (A2780): 3.15
- IC50 (MDA−MB−231 spheroids): 13.5 ± 1.25 µM
- IC50 (HT29 spheroids): 11.4 ± 1.31 µM

Compound: N[C@H]1CCCC[C@@H]1N.O=[N+]([O-])[O-].O=[N+]([O-])[O-].[Pt+2].c1cnc2c(c1)ccc1cccnc12 [[Pt(1,10-phenanthroline)(1S,2S-diaminocyclohexane)](NO3)2]
- β-actin/GAPDH normalized to control (1) (HT29 cells): 0.1267
- β-tubulin/GAPDH normalized to control (1) (HT29 cells): 0.232
- α-tubulin/GAPDH normalized to control (1) (HT29 cells): 0.09086
- p-AKT/AKT/GAPDH normalized to control (1) (HT29 cells): 0.09219
- p-ERK/ERK/GAPDH normalized to control (1) (HT29 cells): 0.9509
- p53/GAPDH normalized to control (1) (HT29 cells): 4.791
- p21/GAPDH normalized to control (1) (HT29 cells): 3.18
- Bax/GAPDH normalized to control (1) (HT29 cells): 3.407
- Bcl2/GAPDH normalized to control (1) (HT29 cells): 0.2872
- Cyt C/GAPDH normalized to control (1) (HT29 cells): 1.692
- Procaspase 8/GAPDH normalized to control (1) (HT29 cells): 0.1633
- Cleaved BID/GAPDH normalized to control (1) (HT29 cells): 1.611
- Procaspase 9/GAPDH normalized to control (1) (HT29 cells): 0.1981
- Cleaved caspase 3/GAPDH normalized to control (1) (HT29 cells): 17.46
- Procaspase 3/GAPDH normalized to control (1) (HT29 cells): 0.4874
- Cleaved PARP-1/GAPDH normalized to control (1) (HT29 cells): 8.496
- PARP-1/GAPDH normalized to control (1) (HT29 cells): 0.2612
- Beclin1/GAPDH normalized to control (1) (HT29 cells): 5.324
- ATG5/GAPDH normalized to control (1) (HT29 cells): 0.9428
- ATG16L1/GAPDH normalized to control (1) (HT29 cells): 3.844
- ATG9A/GAPDH normalized to control (1) (HT29 cells): 0.465
- ATG4B/GAPDH normalized to control (1) (HT29 cells): 0.6844
- LC3B/GAPDH normalized to control (1) (HT29 cells): 2.121
- β-actin/GAPDH normalized to control (1) (MDA−MB−231 cells): 0.4744
- β-tubulin/GAPDH normalized to control (1) (MDA−MB−231 cells): 1.15
- α-tubulin/GAPDH normalized to control (1) (MDA−MB−231 cells): 0.9355
- p-AKT/AKT/GAPDH normalized to control (1) (MDA−MB−231 cells): 0.6042
- p-ERK/ERK/GAPDH normalized to control (1) (MDA−MB−231 cells): 0.6771
- p53/GAPDH normalized to control (1) (MDA−MB−231 cells): 1.105
- p21/GAPDH normalized to control (1) (MDA−MB−231 cells): 1.812
- Bax/GAPDH normalized to control (1) (MDA−MB−231 cells): 1.161
- Bcl2/GAPDH normalized to control (1) (MDA−MB−231 cells): 0.8361
- Cytochrome C/GAPDH normalized to control (1) (MDA−MB−231 cells): 1.827
- Procaspase 8/GAPDH normalized to control (1) (MDA−MB−231 cells): 0.5195
- Cleaved BID/GAPDH normalized to control (1) (MDA−MB−231 cells): 13.39
- Procaspase 9/GAPDH normalized to control (1) (MDA−MB−231 cells): 0.2042
- Procaspase 3/GAPDH normalized to control (1) (MDA−MB−231 cells): 0.3207
- PARP-1/GAPDH normalized to control (1) (MDA−MB−231 cells): 0.7775
- Beclin1/GAPDH normalized to control (1) (MDA−MB−231 cells): 1.911
- ATG5/GAPDH normalized to control (1) (MDA−MB−231 cells): 0.7762
- ATG16L1/GAPDH normalized to control (1) (MDA−MB−231 cells): 0.6758
- ATG9A/GAPDH normalized to control (1) (MDA−MB−231 cells): 0.361
- ATG4B/GAPDH normalized to control (1) (MDA−MB−231 cells): 1.546
- LC3B/GAPDH normalized to control (1) (MDA−MB−231 cells): 0.9969
- potency relative to cisplatin (A2780): 19 fold
- IC50 (A2780): 1.11 ± 1.88 µM
- Selective cytotoxicity index (SCI) (A2780): 3.14
- IC50 (MDA−MB−231 spheroids): 5.44 ± 1.35 µM
- IC50 (HT29 spheroids): 3.93 ± 1.46 µM

— publication PMC11274883, “Anticancer Effect of Pt^[sequence], Pt^II5MESS, Pt^II56MESS and Their Platinum(IV)-Dihydroxy Derivatives against Triple-Negative Breast Cancer and Cisplatin-Resistant Colorectal Cancer” (Cancers, 2024)
